Ten molecules from patent US8741897B2, “Glucocorticoid mimetics, methods of making them, pharmaceutical compositions and uses thereof” (Boehringer Ingelheim Pharmaceuticals Inc., priority 2003, dated 2014) can be followed below.

Test [1] addresses T1, human glucocorticoid receptor (GR) complex (Homo sapiens, UniProt P04150).
T1 construct: made in house; host or cells: insect expression system (baculovirus lysate)
T1 sequence (P04150 1-777): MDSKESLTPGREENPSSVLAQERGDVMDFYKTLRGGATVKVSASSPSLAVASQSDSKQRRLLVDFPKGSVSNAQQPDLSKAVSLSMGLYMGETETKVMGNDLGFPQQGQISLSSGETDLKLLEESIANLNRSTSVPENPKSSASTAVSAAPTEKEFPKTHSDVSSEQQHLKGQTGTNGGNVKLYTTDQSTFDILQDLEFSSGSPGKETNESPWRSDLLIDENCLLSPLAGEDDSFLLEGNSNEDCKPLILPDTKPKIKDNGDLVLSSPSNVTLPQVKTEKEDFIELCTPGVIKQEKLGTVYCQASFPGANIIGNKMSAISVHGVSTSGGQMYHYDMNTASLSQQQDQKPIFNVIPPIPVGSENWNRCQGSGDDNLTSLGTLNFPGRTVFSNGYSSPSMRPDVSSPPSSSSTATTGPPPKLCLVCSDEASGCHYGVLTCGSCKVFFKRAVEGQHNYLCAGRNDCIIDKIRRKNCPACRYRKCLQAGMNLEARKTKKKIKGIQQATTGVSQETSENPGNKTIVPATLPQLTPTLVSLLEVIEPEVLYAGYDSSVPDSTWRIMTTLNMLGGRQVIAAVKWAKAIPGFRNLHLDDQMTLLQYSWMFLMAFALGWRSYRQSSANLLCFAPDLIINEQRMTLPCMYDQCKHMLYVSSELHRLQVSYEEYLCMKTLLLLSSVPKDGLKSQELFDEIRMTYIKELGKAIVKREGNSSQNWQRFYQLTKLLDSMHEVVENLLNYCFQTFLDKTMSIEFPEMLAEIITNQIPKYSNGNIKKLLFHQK
As to the kind of experiment: Glucocorticoid receptor competitive binding assay (fluorescence polarization, TAMRA-labeled dexamethasone probe). Particulars: compounds of Formula (IA). The procedure:
Compounds of the invention were evaluated for binding to the steroid receptor by a fluorescence polarization competitive binding assay. Detailed descriptions for preparation of recombinant glucocorticoid receptor (GR) complex used in the assay is described in U.S. patent application Pub.
A. Glucocorticoid Receptor Competitive Binding Assay
Step 1. Characterization of the Fluorescent Probe
The wavelengths for maximum excitation and emission of the fluorescent probe should first be measured. An example of such a probe is rhodamine (TAMRA)-labeled dexamethasone.
The affinity of the probe for the steroid receptor was then determined in a titration experiment. The fluorescence polarization value of the probe in assay buffer was measured on an SLM-8100 fluorometer using the excitation and emission maximum values described above. Aliquots of expression vector lysate were added and fluorescence polarization was measured after each addition until no further change in polarization value was observed. Non-linear least squares regression analysis was used to calculate the dissociation constant of the probe from the polarization values obtained for lysate binding to the probe.
Step 2. Screening for Inhibitors of Probe Binding
This assay uses fluorescence polarization (FP) to quantitate the ability of test compounds to compete with tetramethyl rhodamine (TAMRA)-labeled dexamethasone for binding to a human glucocorticoid receptor (GR) complex prepared from an insect expression system. The assay buffer was: 10 mM TES, 50 mM KCl, 20 mM Na2MoO4.2H2O, 1.5 mM EDTA, 0.04% w/v CHAPS, 10% v/v glycerol, 1 mM dithiothreitol, pH 7.4. Test compounds were dissolved to 1 mM in neat DMSO and then further diluted to 10× assay concentration in assay buffer supplemented with 10% v/v DMSO. Test compounds were serially diluted at 10× assay concentrations in 10% DMSO-containing buffer in 96-well polypropylene plates. Binding reaction mixtures were prepared in 96-well black Dynex microtiter plates by sequential addition of the following assay components to each well: 15 μL of 10× test compound solution, 85 μL of GR-containing baculovirus lysate diluted 1:170 in assay buffer, and 50 μL of 15 nM TAMRA-labeled dexamethasone. Positive controls were reaction mixtures containing no test compound; negative controls (blanks) were reaction mixtures containing 0.7 μM to 2 μM dexamethasone. […] IC50 values were determined by iterative non-linear curve fitting of the FP signal data to a 4-parameter logistic equation.
In general terms: Polarisation of emitted light reports the rotation of a fluorescent probe.

The subject of test [2] is glucocorticoid receptor function. As to the kind of experiment: one or more of the above assays (GR binding and glucocorticoid receptor cell assays: aromatase, IL-6, TAT, MMTV-Luc, IL-8, ICAM-Luc). It counts as cell-based. The following applies: assay not specified per compound.

On to `CC(C)(CC(O)(Cc1cc2ccccc2[nH]1)C(F)(F)F)c1cccc(Cl)c1` (centres unmarked) [4-(3-Chlorophenyl)-1,1,1-trifluoro-2-(1H-indol-2-ylmethyl)-4-methylpentan-2-ol], for which the “activity in the GR binding assay” value in test [1] is on record as “potent activity”. Further, the “activity as agonists of the glucocorticoid receptor function in one or more of the above assays” value (“activity as agonists” for short) in test [2] is recorded as “potent agonists”.

For `CC(C)(CC(O)(Cc1cc2ncncc2[nH]1)C(F)(F)F)c1cc(Cl)cc2c1OCC2` (centres unmarked) [4-(5-Chloro-2,3-dihydrobenzofuran-7-yl)-1,1,1-trifluoro-4-methyl-2-(5H-pyrrolo[3,2-d]pyrimidin-6-ylmethyl)pentan-2-ol], the “activity in the GR binding assay” value in test [1] is “potent activity”. Besides, the “activity as agonists” value in test [2] is given as “potent agonists”.

`Cc1cc2c(c(C(C)(C)CC(O)(Cc3cc4cnccc4[nH]3)C(F)(F)F)c1)OCC2` (centres unmarked) [1,1,1-Trifluoro-4-methyl-4-(5-methyl-2,3-dihydrobenzofuran-7-yl)-2-(1H-pyrrolo[3,2-c]pyridin-2-ylmethyl)pentan-2-ol]: in test [1], the “activity in the GR binding assay” value is “potent activity”. The “activity as agonists” value in test [2] is “potent agonists”.

In the case of `CC(C)(CC(O)(Cc1cc2nc(C#N)ccc2[nH]1)C(F)(F)F)c1cc(Cl)cc2c1OCC2` (centres unmarked) [2-[4-(5-Chloro-2,3-dihydrobenzofuran-7-yl)-2-hydroxy-4-methyl-2-trifluoromethylpentyl]-1H-pyrrolo[3,2-b]pyridine-5-carbonitrile], in test [1], the “activity in the GR binding assay” value is given as “potent activity”. Moreover, the “activity as agonists” value in test [2] was “potent agonists”.

Regarding `Cc1cc2[nH]c(CC(O)(CC(C)(C)c3cc(F)ccc3C)C(F)(F)F)cc2c(C)n1` (centres unmarked) [2-(4,6-Dimethyl-1H-pyrrolo[3,2-c]pyridin-2-ylmethyl)-1,1,1-trifluoro-4-(5-fluoro-2-methylphenyl)-4-methylpentan-2-ol], in test [1], the “activity in the GR binding assay” value is “potent activity”. Also, in test [2], the “activity as agonists” value is “potent agonists”.

With `CC(C)(CC(O)(Cc1cc2cc([N+](=O)[O-])ccc2[nH]1)C(F)(F)F)c1cc(F)ccc1O` (centres unmarked) [4-Fluoro-2-[4,4,4-trifluoro-3-hydroxy-1,1-dimethyl-3-(5-nitro-1H-indol-2-ylmethyl)butyl]phenol], the “activity in the GR binding assay” value in test [1] is “potent activity”. Besides, the “activity as agonists” value in test [2] is on record as “potent agonists”.

`CC(C)(CC(O)(Cc1cc2cnccc2[nH]1)C(F)(F)F)c1cc(Br)cc2c1OCC2` (centres unmarked) [4-(5-Bromo-2,3-dihydrobenzofuran-7-yl)-1,1,1-trifluoro-4-methyl-2-(1H-pyrrolo[3,2-c]pyridin-2-ylmethyl)pentan-2-ol]: the “activity in the GR binding assay” value in test [1] is listed as “potent activity”. In addition, the “activity as agonists” value in test [2] is recorded as “potent agonists”.

For `COc1ccc(OC)c(C(C)(C)CC(O)(Cc2cc3ccncc3[nH]2)C(F)(F)F)c1` (centres unmarked) [4-(2,5-Dimethoxyphenyl)-1,1,1-trifluoro-4-methyl-2-(1H-pyrrolo[2,3-c]pyridin-2-ylmethyl)pentan-2-ol], the “activity in the GR binding assay” value in test [1] is “potent activity”. Also, the “activity as agonists” value in test [2] was “potent agonists”.

Regarding `CC(C)(CC(O)(Cc1ccnc2ccccc12)C(F)(F)F)c1cc(F)ccc1O` (centres unmarked) [4-Fluoro-2-(4,4,4-trifluoro-3-hydroxy-1,1-dimethyl-3-quinolin-4-ylmethylbutyl)phenol], in test [1], the “activity in the GR binding assay” value is recorded as “potent activity”. Besides, in test [2], the “activity as agonists” value is given as “potent agonists”.

Consider `Cc1cccc(C(C)(C)CC(O)(Cc2cc(C)nc(C)c2)C(F)(F)F)c1` (centres unmarked) [2-(2,6-Dimethylpyridin-4-ylmethyl)-1,1,1-trifluoro-4-methyl-4-m-tolylpentan-2-ol], for which the “activity in the GR binding assay” value in test [1] is listed as “potent activity”. Besides, the “activity as agonists” value in test [2] is on record as “potent agonists”.
